Consider one molecule from patent US9095136B2, “2-IODO imidazole-derivatives” (BAYER INTELLECTUAL PROPERTY GMBH, priority 2011, dated 2015).

Assay [1] relates to Pyricularia oryzae. Type of assay: in vivo. Particulars: rice, protective, 500 ppm, evaluation 7 days after inoculation.
For assay [2], the system named is Septoria tritici. Briefly: Example Z: Septoria tritici test (wheat)/protective, comparison. Type of assay: in vivo. The note with it: protective, application rate 250 ppm, evaluation 21 days after inoculation. The protocol: Solvent: 49 parts by weight of N,N-dimethylacetamide Emulsifier: 1 part by weight of alkylaryl polyglycol ether To produce a suitable preparation of active compound, 1 part by weight of active compound or active compound combination is mixed with the stated amounts of solvent and emulsifier, and the concentrate is diluted with water to the desired concentration. To test for protective activity, young plants are sprayed with the preparation of active compound or active compound combination at the stated application rate. After the spray coating has dried on, the plants are sprayed with a spore suspension of Septoria tritici.

For the next assay, the system named is Sphaerotheca fuliginea. Briefly: Example V: preventative in vivo test with Sphaerotheca fuliginea (powdery mildew on cucumber). The note with it: 500 ppm, evaluation 12 days after inoculation.
Assay [3] deals with Fusarium nivale (var. majus). The experiment in a line: Example M: Fusarium nivale (var. majus) test (wheat)/protective. Type of assay: in vivo. Particulars: protective, 500 ppm, evaluation 5 days after inoculation. As for the experimental part: Solvent: 49 parts by weight of N,N-dimethylacetamide Emulsifier: 1 part by weight of alkylaryl polyglycol ether To produce a suitable preparation of active compound, 1 part by weight of active compound is mixed with the stated amounts of solvent and emulsifier, and the concentrate is diluted with water to the desired concentration. To test for protective activity, young plants are sprayed with the preparation of active compound at the stated application rate. After the spray coating has dried on, the plants are sprayed with a spore suspension of Fusarium nivale (var. majus).

Assay [4] has as its system Blumeria graminis f.sp. hordei. Briefly: Example G: Blumeria graminis test (barley)/protective. Type of assay: in vivo. Particulars: protective, 500 ppm, evaluation 7 days after inoculation. As for the experimental part:
Solvent: 49 parts by weight of N,N-dimethylacetamide Emulsifier: 1 part by weight of alkylaryl polyglycol ether To produce a suitable preparation of active compound, 1 part by weight of active compound is mixed with the stated amounts of solvent and emulsifier, and the concentrate is diluted with water to the desired concentration. To test for protective activity, young plants are sprayed with the preparation of active compound at the stated application rate. After the spray coating has dried on, the plants are dusted with spores of Blumeria graminis f.sp. hordei.

In the next assay the test system is Puccinia recondita. Briefly: Example T: preventative in vivo test with Puccinia recondita (brown rust on wheat). The note with it: 500 ppm, evaluation 10 days after inoculation.
The next assay deals with Uromyces appendiculatus. The experiment in a line: Example E: Uromyces test (bean)/protective. Type of assay: in vivo. The note with it: protective, 10 ppm, evaluation 10 days after inoculation.
For assay [5], the system named is Pyricularia oryzae. Type of assay: in vivo. The note with it: rice, preventative, 500 ppm, evaluation 6 days after inoculation.
For the next assay, the system named is Fusarium graminearum. Type of assay: in vivo. The note with it: barley (heading), protective, 500 ppm, evaluation 5 days after inoculation.
Assay [6] has as its system Septoria tritici. Briefly: Example U: preventative in vivo test with Septoria tritici (leaf blotch disease on wheat). Particulars: 500 ppm, evaluation 21 to 28 days after inoculation.
The subject of another assay is Venturia inaequalis. Briefly: Example D: Venturia test (apple)/protective. The note with it: protective, 100 ppm, evaluation 10 days after inoculation. Type of assay: in vivo. As for the experimental part:
Solvent: 24.5 parts by weight of acetone • 24.5 parts by weight of dimethylacetamide Emulsifier: 1 part by weight of alkylaryl polyglycol ether To produce a suitable preparation of active compound, 1 part by weight of active compound is mixed with the stated amounts of solvent and emulsifier, and the concentrate is diluted with water to the desired concentration. To test for protective activity, young plants are sprayed with the preparation of active compound at the stated application rate. […] The plants are then placed in a greenhouse at about 21° C. and a relative atmospheric humidity of about 90%.

Where “and” joins values, the source holds several entries; their conditions need not be identical. Equal values may be shown once.

For the molecule `OC(Cc1ccccc1Cl)(Cn1ccnc1I)C1(Cl)CC1` (centres unmarked) [Example 1, 2-(1-chlorocyclopropyl)-1-(2-chlorophenyl)-3-(2-iodo-1H-imidazol-1-yl)propan-2-ol], the Eff. % is 95% with Pyricularia oryzae [1]; 100% in assay [3]; 100% in assay [4]; 100% and 88% in the assay with Uromyces appendiculatus; 100% in the assay on Fusarium graminearum; 100% in the assay on Venturia inaequalis. Moreover, the Efficacy in % with Septoria tritici [2] worked out at 86%. Moreover, the Efficacy % in the assay on Sphaerotheca fuliginea, in the assay with Puccinia recondita, in the assay on Pyricularia oryzae [5] and with Septoria tritici [6] was 100% in each case.
